Reference: ChEMBL document CHEMBL4699453, “Correlations between functional porphyrin positions and accumulation in cancer cells” (Bioorg Med Chem Lett, 2020)

How the values were obtained:
Albumin [1] = molecular target: T1, Albumin (Bos taurus, UniProt P02769); test: Binding affinity to bovine serum albumin assessed as Stem-Volmer quenching constant by fluorescence based Stern-Volmer plot analysis; settings: cattle
Albumin [2] = molecular target: T1, Albumin; test: Binding affinity to bovine serum albumin assessed as binding constant by fluorescence based Stern-Volmer plot analysis; settings: cattle
[3] = Drug uptake in human MCF7 cells at 10 uM incubated for 2 hrs by fluorescence based assay; type: ADME, cell-based; settings: mcf7, 2 h
[4] = Drug uptake in human MCF7 cells at 10 uM incubated for 24 hrs by fluorescence based assay; type: ADME, cell-based; settings: mcf7, 24 h

T1 sequence (P02769 whole entry): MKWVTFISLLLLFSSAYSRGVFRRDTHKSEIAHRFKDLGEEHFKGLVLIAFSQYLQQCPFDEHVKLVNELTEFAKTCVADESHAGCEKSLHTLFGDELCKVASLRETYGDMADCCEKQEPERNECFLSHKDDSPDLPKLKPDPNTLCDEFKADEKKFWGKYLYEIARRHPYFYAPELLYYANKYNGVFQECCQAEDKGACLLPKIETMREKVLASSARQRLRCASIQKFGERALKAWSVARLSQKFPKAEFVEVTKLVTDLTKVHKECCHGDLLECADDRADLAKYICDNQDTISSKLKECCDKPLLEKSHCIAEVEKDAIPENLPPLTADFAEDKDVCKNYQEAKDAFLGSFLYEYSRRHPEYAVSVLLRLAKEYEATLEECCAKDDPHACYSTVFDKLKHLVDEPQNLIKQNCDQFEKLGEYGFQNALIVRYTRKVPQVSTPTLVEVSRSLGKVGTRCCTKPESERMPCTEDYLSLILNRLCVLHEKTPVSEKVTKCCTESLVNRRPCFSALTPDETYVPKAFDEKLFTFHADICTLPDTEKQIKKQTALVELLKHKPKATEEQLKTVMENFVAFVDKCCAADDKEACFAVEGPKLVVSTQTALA

Structure (SMILES) | KSV (Albumin [1]) | Ka (Albumin [2]) | Drug uptake [3] | Drug uptake [4]
CCCCCCCCCCCCCCCC(=O)Nc1ccc(-c2c3nc(c(-c4ccccc4)c4ccc([nH]4)c(-c4ccccc4)c4nc(c(-c5ccccc5)c5ccc2[nH]5)C=C4)C=C3)cc1 | 4.09 10^4L/mol | 3.12 10^4L/mol | 3 10^-2microM | 4.4 10^-2microM
CC(=O)NC1=Cc2nc1c(-c1ccccc1)c1ccc([nH]1)c(-c1ccccc1)c1nc(c(-c3ccccc3)c3ccc([nH]3)c2-c2ccccc2)C=C1 | 4.33 10^4L/mol | 2.86 10^4L/mol | 3.3 10^-2microM | 4.3 10^-2microM
CC(=O)Nc1ccc(-c2c3nc(c(-c4ccccc4)c4ccc([nH]4)c(-c4ccccc4)c4nc(c(-c5ccccc5)c5ccc2[nH]5)C=C4)C=C3)cc1 | 4.96 10^4L/mol | 3.84 10^4L/mol | 5.8 10^-2microM | 5.8 10^-2microM
CCCCCCCCCCCCCCCC(=O)NC1=Cc2nc1c(-c1ccccc1)c1ccc([nH]1)c(-c1ccccc1)c1nc(c(-c3ccccc3)c3ccc([nH]3)c2-c2ccccc2)C=C1 | 3.03 10^4L/mol | 1.98 10^4L/mol | 1.7 10^-2microM | 1.7 10^-2microM
